# Data taken from US10028507B2, “Sixteen-membered macrolide compound and applications thereof” (Zhejiang Hisun Pharmaceutical Co., Ltd., priority 2014, dated 2018).
# Like-named read-outs stand apart in the source and are kept apart here.
# Key:
# [1] = system: Bursaphelenchus xylophilus; experiment: whole plant or invertebrate
# Protocol: Bursaphelenchus xylophilus is the pathogen of pine wilt disease, which results in the death of a great number of pines in the south of China. The laboratory activities of sixteen-membered macrolide compounds, including tenvermectin, avermectin, ivermectin, milbemycin, and emamectin benzoate etc, were tested using Bursaphelenchus xylophilus as the test pest, in order to compare the difference of activities among these reagents on Bursaphelenchus xylophilus.
# Test reagents: 5 reagents, including 0.5% avermectin emulsifiable concentrate, 0.5% tenvermectin emulsifiable concentrate, 0.5% ivermectin emulsifiable concentrate, 2% milbemycin emulsifiable concentrate, and 2.5% emamectin benzoate microemulsion.
# Experiment method: Dipping method was employed. For each reagent, 5 concentrations were tested, including 2, 5, 10, 20, and 50 mg/L. For each concentration, there were 3 repeats. The results were statistically analyzed at 24 h.
# [2] = system: Bursaphelenchus xylophilus; experiment: Activity of tenvermectin A/B of different ratios on Bursaphelenchus xylophilus; assay type: in vivo; conditions: for LC50: in vivo
# Protocol: The activity of the mixture of tenvermectin A and tenvermectin B with different ratios was tested using Bursaphelenchus xylophilus as the test pest, in order to provide reference for modification and fermentation process of tenvermectin-producing bacteria.
# [3] = system: citrus spider mite; experiment: Prevention and control effect on citrus spider mite in field; assay type: in vivo, Panonychus citri McGregor; design: Amount of mites: unit not given here
# Protocol: Citrus spider mite (i.e., Panonychus citri McGregor) is one of the primary insect pests for citrus. It has properties, such as small body, fast propagation and multiple generations, which will cause severe damage to citrus. Tenvermectin was prepared as 2% water dispersible granules for the test of prevention and control of citrus spider mite, so as to determine its effect in field.
# Test reagents: 2% tenvermectin water dispersible granules (tenvermectin, ethanol and alkylphenol polyoxyethylene ether-formaldehyde condensate in a mass ratio of […]), and 2% avermectin emulsifiable concentrate
# Experiment time: in early May, at the young fruit stage of citrus.
# Experiment design: the reagents were diluted 2000-, 4000- and 8000-fold, to concentrations of 10 mg/L, 5 mg/L and 2.5 mg/L, respectively. For each concentration, there were 3 repeats. 10 citrus trees were comprised in one small area that was randomly arranged. Water was used as the control, in which 10 citrus trees were tested. 50 kg of reagent was sprayed for each concentration. The reagent was administrated on a sunny day with no rain in following 24 h.
# Data analysis: in each small area, 5 trees were examined. For each tree, 2 branches, each located in the east, the south, the west, the north and the center of the tree, were investigated. For each branch, the amount of live mites was counted for total 5 leaves. The amount of live mites was counted before administration and on day 3, 5, 7 and 14 after administration respectively, to calculate the reduction rate of the mite population. The prevention and control effect in field was determined based on the result.
# [4] = system: Tetranychus cinnabarinus; experiment: Laboratory activity assay on Tetranychus cinnabarinus, leaf disc dipping method; assay type: in vivo; conditions: foliar
# Protocol: (1) Laboratory activity assay of tenvermectin on Tetranychus cinnabarinus: the laboratory activity of tenvermectin was tested using Tetranychus cinnabarinus as the test pest, and using avermectin as the positive control. The activities were compared between tenvermectin and avermectin.
# Test organism: Tetranychus cinnabarinus: it was inoculated to horsebean seedling and cultured under the conditions of artificial climate [(26±1)° C., RH (70±5)%, H/D14].
# Test reagents: 96% (w/w) avermectin, 98% (w/w) tenvermectin (TEVA:TEVB=8:2): 1 g 96% avermectin and 98% tenvermectin were weighed and added to a beaker respectively, into which 93 g methanol and 6 g surfactant nonylphenol polyoxyethylene ether were added to give a preparation at a concentration of 10000 mg/L. The preparation was diluted with water into a series of concentrations: 0.005, 0.01, 0.025, and 0.05 mg/L for test.
# Experiment method: leaf disc dipping method was employed: adult mites that were raised in laboratory with consistent physiological state were selected. The horsebean leaves with consistent growth condition were selected. 2 cm leaf-discs were prepared using a puncher. The leaf-disc was placed on absorbent cotton in the center of a plastic dish with the back of blade upwards. […] The number of adult mites was counted under a stereomicroscope 2 h later, and the number should not be less than 20 on each leaf disc in the dish. […]
# [5] = 2 mg/L, 24 h, dipping, reagents applied as emulsifiable concentrate/microemulsion
# [6] = 2.5 mg/L, 3 d after administration, field spray
# [7] = 2.5 mg/L, 5 d after administration
# [8] = 2.5 mg/L, 7 d after administration
# [9] = 2.5 mg/L, 14 d after administration
# [10] = 5.0 mg/L, 3 d after administration
# [11] = 5.0 mg/L, 5 d after administration
# [12] = 5.0 mg/L, 7 d after administration
# [13] = 5.0 mg/L, 14 d after administration
# [14] = 10.0 mg/L, 3 d after administration
# [15] = 10.0 mg/L, 5 d after administration
# [16] = 10.0 mg/L, 7 d after administration
# [17] = 10.0 mg/L, 14 d after administration
# [18] = Bursaphelenchus xylophilus, 24 h, read-out: Mortality at different concentrations
compound,measurement,setting,value
emamectin benzoate,Mortality at different concentrations,[1]; [5],48.27%
same,Mortality at different concentrations,"[1]; 5 mg/L, 24 h, dipping",61.68%
same,Mortality at different concentrations,"[1]; 10 mg/L, 24 h, dipping",67.44%
same,Mortality at different concentrations,"[1]; 20 mg/L, 24 h, dipping",75%
same,Mortality at different concentrations,"[1]; 50 mg/L, 24 h, dipping",86.67%
same,LC50,"[1]; 24 h, dipping",2.8055 µg/mL
tenvermectin A,LC50,[2],6.592 µg/mL
milbemycin,LC50,[1]; in vivo,5.0123 µg/mL
CC[C@H](C)[C@H]1O[C@]2(C=C[C@@H]1C)C[C@@H]1C[C@@H](C/C=C(\C)[C@@H](O[C@H]3C[C@H](OC)[C@@H](O[C@H]4C[C@H](OC)[C@@H](O)[C@H](C)O4)[C@H](C)O3)[C@@H](C)/C=C/C=C3\CO[C@@H]4[C@H](O)C(C)=C[C@@H](C(=O)O1)[C@]34O)O2 [avermectin],Amount of mites,[3]; [6],2.0
same,Effect,[3]; [6],80.5c
same,Amount of mites,[3]; [7],1.5
same,Effect,[3]; [7],86.7b
same,Amount of mites,[3]; [8],1.8
same,Effect,[3]; [8],87.3c
same,Amount of mites,[3]; [9],1.9
same,Effect,[3]; [9],80.1b
same,Amount of mites,[3]; [10],0.4
same,Effect,[3]; [10],91.2ab
same,Amount of mites,[3]; [11],1.0
same,Effect,[3]; [11],87.3b
same,Amount of mites,[3]; [12],1.3
same,Effect,[3]; [12],88.1c
same,Amount of mites,[3]; [13],1.4
same,Effect,[3]; [13],80.4b
same,Amount of mites,[3]; [14],1.4
same,Effect,[3]; [14],81.6c
same,Amount of mites,[3]; [15],1.1
same,Effect,[3]; [15],90.6b
same,Amount of mites,[3]; [16],0.7
same,Effect,[3]; [16],95.5c
same,Amount of mites,[3]; [17],5.3
same,Effect,[3]; [17],83.0b
same,LC50,"[1]; Bursaphelenchus xylophilus, 24 h",5.35 µg/mL
same,mortality at 2 µg/mL,[1]; [18],43.2%
same,mortality at 5 µg/mL,[1]; [18],46.1%
same,mortality at 10 µg/mL,[1]; [18],63.1%
same,mortality at 20 µg/mL,[1]; [18],66.9%
same,mortality at 50 µg/mL,[1]; [18],78%
same,LC50,[4]; 24 h,0.0083 µg/mL
same,LC50,[4]; read-out: LC50 on Tetranychus cinnabarinus,0.0083 µg/mL
tenvermectin B,LC50,[2],3.4816 µg/mL
same,relative activity of tenvermectin A/B ratios on Bursaphelenchus xylophilus,[2]; in words,higher than that of tenvermectin A
ivermectin,Mortality at different concentrations,[1]; [5],18.52%
same,Mortality at different concentrations,"[1]; 5 mg/L, 24 h, dipping",42.55%
same,Mortality at different concentrations,"[1]; 10 mg/L, 24 h, dipping",57.47%
same,Mortality at different concentrations,"[1]; 20 mg/L, 24 h, dipping",58.33%
same,Mortality at different concentrations,"[1]; 50 mg/L, 24 h, dipping",78.94%
same,LC50,"[1]; 24 h, dipping",11.0629 µg/mL
